# Experimental data reported in patent US20100242139A1, “XENOHORMESIS BASED COMPOSITIONS AND METHODS” (President and Fellows of Harvard College, priority 2006, published 2010).
# Legend:
# SAPK2b(h) = SAPK2b(h) (Homo sapiens, UniProt Q15759); assay: kinase panel activity, SAPK2b(h); assay type: biochemical; settings: compound at 20 μM; vs reference with no compound
# CDK1/cyclinB(h) = CDK1/cyclinB(h) (Homo sapiens, UniProt P06493); assay: kinase panel activity, CDK1/cyclinB(h); assay type: biochemical; settings: compound at 20 μM; vs reference with no compound
# PAK4(h) = PAK4(h) (Homo sapiens, UniProt O96013); assay: kinase panel activity, PAK4(h); assay type: biochemical; settings: compound at 20 μM; vs reference with no compound
# PKBγ(h) = PKBγ(h) (Homo sapiens, UniProt Q9Y243); assay: kinase panel activity, PKBγ(h); assay type: biochemical
# GSK3β(h) = GSK3β(h) (Homo sapiens, UniProt P49841); assay: kinase panel activity, GSK3β(h); assay type: biochemical; settings: compound at 20 μM; vs reference with no compound
# PIk3(h) = PIk3(h) (Homo sapiens, UniProt Q9H4B4); assay: kinase panel activity, PIk3(h); assay type: biochemical; settings: compound at 20 μM; vs reference with no compound
# MSK1(h) = MSK1(h) (Homo sapiens, UniProt O75582); assay: kinase panel activity, MSK1(h); assay type: biochemical; settings: compound at 20 μM; vs reference with no compound
# MEK1(h) = MEK1(h) (Homo sapiens, UniProt Q02750); assay: kinase panel activity, MEK1(h); assay type: biochemical; settings: compound at 20 μM; vs reference with no compound
# FGFR1(h) = FGFR1(h) (Homo sapiens, UniProt P11362); assay: kinase panel activity, FGFR1(h); assay type: biochemical; settings: compound at 20 μM; vs reference with no compound
# CDK6/cyclinD3(h) = CDK6/cyclinD3(h) (Homo sapiens, UniProt Q00534); assay: kinase panel activity, CDK6/cyclinD3(h); assay type: biochemical; settings: compound at 20 μM; vs reference with no compound
# PDGFRβ(h) = PDGFRβ(h) (Homo sapiens, UniProt P09619); assay: kinase panel activity, PDGFRβ(h); assay type: biochemical; settings: compound at 20 μM; vs reference with no compound
# Snk(h) = Snk(h) (Homo sapiens, UniProt Q9NYY3); assay: kinase panel activity, Snk(h); assay type: biochemical; settings: compound at 20 μM; vs reference with no compound
# ZAP-70(h) = ZAP-70(h) (Homo sapiens, UniProt P43403); assay: kinase panel activity, ZAP-70(h); assay type: biochemical; settings: compound at 20 μM; vs reference with no compound
# PDGFRα(h) = PDGFRα(h) (Homo sapiens, UniProt P16234); assay: kinase panel activity, PDGFRα(h); assay type: biochemical; settings: compound at 20 μM; vs reference with no compound
# Chain of PDGFRα(h) (P16234 24-1089): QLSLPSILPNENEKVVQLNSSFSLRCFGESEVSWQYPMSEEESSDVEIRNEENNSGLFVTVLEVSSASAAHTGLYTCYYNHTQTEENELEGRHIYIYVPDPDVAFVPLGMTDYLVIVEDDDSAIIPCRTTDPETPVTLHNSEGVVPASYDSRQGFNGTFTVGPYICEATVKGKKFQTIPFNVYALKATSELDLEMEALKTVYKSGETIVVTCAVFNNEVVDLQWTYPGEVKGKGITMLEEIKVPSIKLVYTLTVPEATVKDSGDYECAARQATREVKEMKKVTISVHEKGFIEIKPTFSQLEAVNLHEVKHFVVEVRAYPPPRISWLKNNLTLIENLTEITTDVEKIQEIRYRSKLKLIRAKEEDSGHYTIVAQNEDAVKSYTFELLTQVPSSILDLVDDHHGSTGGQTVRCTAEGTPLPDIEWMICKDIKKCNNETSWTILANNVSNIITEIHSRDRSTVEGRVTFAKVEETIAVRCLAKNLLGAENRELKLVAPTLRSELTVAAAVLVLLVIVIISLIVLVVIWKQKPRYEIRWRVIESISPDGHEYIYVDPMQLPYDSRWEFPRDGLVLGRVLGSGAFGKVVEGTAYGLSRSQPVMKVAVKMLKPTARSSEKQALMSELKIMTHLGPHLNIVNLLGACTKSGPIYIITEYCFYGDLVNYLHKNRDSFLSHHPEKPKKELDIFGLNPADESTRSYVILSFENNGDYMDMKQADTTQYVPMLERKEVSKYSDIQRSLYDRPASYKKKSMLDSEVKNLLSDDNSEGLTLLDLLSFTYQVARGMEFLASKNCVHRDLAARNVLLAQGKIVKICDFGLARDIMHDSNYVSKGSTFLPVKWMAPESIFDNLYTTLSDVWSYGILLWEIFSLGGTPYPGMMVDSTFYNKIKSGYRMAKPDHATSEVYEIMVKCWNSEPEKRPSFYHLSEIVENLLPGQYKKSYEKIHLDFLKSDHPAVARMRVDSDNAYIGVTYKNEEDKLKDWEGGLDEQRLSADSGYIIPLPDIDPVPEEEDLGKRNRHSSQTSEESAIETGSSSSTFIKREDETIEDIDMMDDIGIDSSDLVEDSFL
# SGK2(h) = SGK2(h) (Homo sapiens, UniProt Q9HBY8); assay: kinase panel activity, SGK2(h); assay type: biochemical; settings: compound at 20 μM; vs reference with no compound
# SAPK4(h) = SAPK4(h) (Homo sapiens, UniProt O15264); assay: kinase panel activity, SAPK4(h); assay type: biochemical; settings: compound at 20 μM; vs reference with no compound
# Chain of SAPK4(h) (O15264 whole entry): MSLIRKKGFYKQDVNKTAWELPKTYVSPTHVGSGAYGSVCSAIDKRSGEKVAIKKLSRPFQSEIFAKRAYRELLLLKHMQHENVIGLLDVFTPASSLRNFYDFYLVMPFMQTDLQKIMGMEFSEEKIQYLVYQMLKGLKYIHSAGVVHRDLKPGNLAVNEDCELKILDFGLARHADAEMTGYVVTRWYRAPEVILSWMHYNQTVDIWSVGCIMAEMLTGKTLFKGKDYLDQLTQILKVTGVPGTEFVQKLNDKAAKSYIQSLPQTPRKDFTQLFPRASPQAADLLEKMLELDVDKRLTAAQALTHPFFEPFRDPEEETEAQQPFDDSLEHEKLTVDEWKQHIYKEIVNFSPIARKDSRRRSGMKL
# CDK7/cyclinH/MAT1(h) = CDK7/cyclinH/MAT1(h) (Homo sapiens, UniProt P50613); assay: kinase panel activity, CDK7/cyclinH/MAT1(h); assay type: biochemical; settings: compound at 20 μM; vs reference with no compound
# PKCα(h) = PKCα(h) (Homo sapiens, UniProt P17252); assay: kinase panel activity, PKCα(h); assay type: biochemical; settings: compound at 20 μM; vs reference with no compound
# JNK2α2(h) = JNK2α2(h) (Homo sapiens, UniProt P45984); assay: kinase panel activity, JNK2α2(h); assay type: biochemical; settings: compound at 20 μM; vs reference with no compound
# MAPK1(h) = MAPK1(h) (Homo sapiens, UniProt P27361); assay: kinase panel activity, MAPK1(h); assay type: biochemical; settings: compound at 20 μM; vs reference with no compound
# CDK9/cyclin T1(h) = CDK9/cyclin T1(h) (Homo sapiens, UniProt P50750); assay: kinase panel activity, CDK9/cyclin T1(h); assay type: biochemical; settings: compound at 20 μM; vs reference with no compound
# JNK3(h) = JNK3(h) (Homo sapiens, UniProt P53779); assay: kinase panel activity, JNK3(h); assay type: biochemical; settings: compound at 20 μM; vs reference with no compound
# p70S6K(h) = p70S6K(h) (Homo sapiens, UniProt P23443); assay: kinase panel activity, p70S6K(h); assay type: biochemical; settings: compound at 20 μM; vs reference with no compound
# MST1(h) = MST1(h) (Homo sapiens, UniProt Q13043); assay: kinase panel activity, MST1(h); assay type: biochemical; settings: compound at 20 μM; vs reference with no compound
# TAK1(h) = TAK1(h) (Homo sapiens, UniProt O43318); assay: kinase panel activity, TAK1(h); assay type: biochemical; settings: compound at 20 μM; vs reference with no compound
# Chain of TAK1(h) (O43318 1-303 limits assumed): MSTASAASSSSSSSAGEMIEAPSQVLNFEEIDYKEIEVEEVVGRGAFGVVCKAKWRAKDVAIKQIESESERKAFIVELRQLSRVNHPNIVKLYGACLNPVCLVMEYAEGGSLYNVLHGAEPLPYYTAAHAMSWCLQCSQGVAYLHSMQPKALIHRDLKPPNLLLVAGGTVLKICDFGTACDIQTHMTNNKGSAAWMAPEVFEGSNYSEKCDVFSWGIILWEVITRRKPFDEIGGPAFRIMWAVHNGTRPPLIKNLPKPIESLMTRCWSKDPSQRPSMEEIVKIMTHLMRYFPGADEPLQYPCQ
# PKBβ(h) = PKBβ(h) (Homo sapiens, UniProt P31751); assay: kinase panel activity, PKBβ(h); assay type: biochemical
# cSRC(h) = cSRC(h) (Homo sapiens, UniProt P12931); assay: kinase panel activity, cSRC(h); assay type: biochemical; settings: compound at 20 μM; vs reference with no compound
# NEK3(h) = NEK3(h) (Homo sapiens, UniProt P51956); assay: kinase panel activity, NEK3(h); assay type: biochemical; settings: compound at 20 μM; vs reference with no compound
# MAPK2(h) = MAPK2(h) (Homo sapiens, UniProt P28482); assay: kinase panel activity, MAPK2(h); assay type: biochemical; settings: compound at 20 μM; vs reference with no compound
# Chain of MAPK2(h) (P28482 whole entry): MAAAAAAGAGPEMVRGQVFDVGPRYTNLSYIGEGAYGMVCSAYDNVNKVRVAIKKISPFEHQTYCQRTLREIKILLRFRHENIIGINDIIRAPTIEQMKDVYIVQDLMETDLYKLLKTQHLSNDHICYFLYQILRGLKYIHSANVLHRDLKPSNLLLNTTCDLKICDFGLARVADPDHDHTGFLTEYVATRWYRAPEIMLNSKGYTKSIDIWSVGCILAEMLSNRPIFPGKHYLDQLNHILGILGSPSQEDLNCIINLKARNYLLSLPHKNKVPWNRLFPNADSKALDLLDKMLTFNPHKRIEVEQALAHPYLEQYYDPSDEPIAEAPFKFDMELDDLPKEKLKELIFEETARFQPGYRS
# IKKα(h) = IKKα(h) (Homo sapiens, UniProt O15111); assay: kinase panel activity, IKKα(h); assay type: biochemical; settings: compound at 20 μM; vs reference with no compound
# Chain of IKKα(h) (O15111 whole entry): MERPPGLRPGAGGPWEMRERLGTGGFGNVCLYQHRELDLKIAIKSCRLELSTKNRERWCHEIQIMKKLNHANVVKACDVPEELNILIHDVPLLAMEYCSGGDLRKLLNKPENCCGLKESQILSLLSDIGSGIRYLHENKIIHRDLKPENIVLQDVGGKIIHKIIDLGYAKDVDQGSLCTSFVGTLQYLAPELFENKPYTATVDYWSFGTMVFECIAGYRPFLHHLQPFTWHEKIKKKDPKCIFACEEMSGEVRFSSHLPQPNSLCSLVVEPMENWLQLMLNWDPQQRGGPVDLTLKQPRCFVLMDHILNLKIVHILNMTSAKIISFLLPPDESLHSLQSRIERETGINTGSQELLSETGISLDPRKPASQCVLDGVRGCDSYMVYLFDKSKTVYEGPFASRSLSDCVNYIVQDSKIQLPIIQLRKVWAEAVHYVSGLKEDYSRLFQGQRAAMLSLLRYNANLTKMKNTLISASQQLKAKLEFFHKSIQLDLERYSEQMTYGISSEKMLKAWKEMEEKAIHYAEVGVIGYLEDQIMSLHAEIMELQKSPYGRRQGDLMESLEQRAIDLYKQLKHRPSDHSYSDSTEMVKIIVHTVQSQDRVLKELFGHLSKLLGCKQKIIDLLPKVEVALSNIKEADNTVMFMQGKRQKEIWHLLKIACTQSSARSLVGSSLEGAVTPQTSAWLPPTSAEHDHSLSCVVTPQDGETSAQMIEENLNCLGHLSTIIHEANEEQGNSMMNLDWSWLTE
# Rsk1(h) = Rsk1(h) (Homo sapiens, UniProt Q15418); assay: kinase panel activity, Rsk1(h); assay type: biochemical; settings: compound at 20 μM; vs reference with no compound
# NEK6(h) = NEK6(h) (Homo sapiens, UniProt Q9HC98); assay: kinase panel activity, NEK6(h); assay type: biochemical; settings: compound at 20 μM; vs reference with no compound
# Chain of NEK6(h) (Q9HC98 whole entry): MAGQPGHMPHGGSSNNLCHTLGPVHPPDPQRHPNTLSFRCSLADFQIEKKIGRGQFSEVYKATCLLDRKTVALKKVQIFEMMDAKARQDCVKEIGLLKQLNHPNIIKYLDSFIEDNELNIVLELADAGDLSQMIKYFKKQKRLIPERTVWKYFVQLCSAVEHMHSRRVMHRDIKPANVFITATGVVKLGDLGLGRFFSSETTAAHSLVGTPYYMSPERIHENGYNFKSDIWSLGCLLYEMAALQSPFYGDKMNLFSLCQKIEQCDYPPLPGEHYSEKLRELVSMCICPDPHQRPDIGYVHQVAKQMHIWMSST
# ALK4(h) = ALK4(h) (Homo sapiens, UniProt P36896); assay: kinase panel activity, ALK4(h); assay type: biochemical; settings: compound at 20 μM; vs reference with no compound
# Chain of ALK4(h) (P36896 24-505): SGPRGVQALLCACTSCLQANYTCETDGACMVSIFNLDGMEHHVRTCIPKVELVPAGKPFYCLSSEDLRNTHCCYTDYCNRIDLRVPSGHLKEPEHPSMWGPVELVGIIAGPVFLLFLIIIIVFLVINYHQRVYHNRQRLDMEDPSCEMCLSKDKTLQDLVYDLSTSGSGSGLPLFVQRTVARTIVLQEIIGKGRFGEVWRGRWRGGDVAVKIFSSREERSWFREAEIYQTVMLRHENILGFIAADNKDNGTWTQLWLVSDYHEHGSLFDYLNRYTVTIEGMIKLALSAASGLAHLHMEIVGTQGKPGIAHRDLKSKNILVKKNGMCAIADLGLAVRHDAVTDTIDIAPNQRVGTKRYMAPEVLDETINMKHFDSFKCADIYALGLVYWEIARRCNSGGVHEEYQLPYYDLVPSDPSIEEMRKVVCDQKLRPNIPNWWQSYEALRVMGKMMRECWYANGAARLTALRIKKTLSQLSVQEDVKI
# AMPK(r) = assay: kinase panel activity, AMPK(r); assay type: biochemical, rat; settings: compound at 20 μM; vs reference with no compound
# CHK2(h) = CHK2(h) (Homo sapiens, UniProt O96017); assay: kinase panel activity, CHK2(h); assay type: biochemical; settings: compound at 20 μM; vs reference with no compound
# Chain of CHK2(h) (O96017 whole entry): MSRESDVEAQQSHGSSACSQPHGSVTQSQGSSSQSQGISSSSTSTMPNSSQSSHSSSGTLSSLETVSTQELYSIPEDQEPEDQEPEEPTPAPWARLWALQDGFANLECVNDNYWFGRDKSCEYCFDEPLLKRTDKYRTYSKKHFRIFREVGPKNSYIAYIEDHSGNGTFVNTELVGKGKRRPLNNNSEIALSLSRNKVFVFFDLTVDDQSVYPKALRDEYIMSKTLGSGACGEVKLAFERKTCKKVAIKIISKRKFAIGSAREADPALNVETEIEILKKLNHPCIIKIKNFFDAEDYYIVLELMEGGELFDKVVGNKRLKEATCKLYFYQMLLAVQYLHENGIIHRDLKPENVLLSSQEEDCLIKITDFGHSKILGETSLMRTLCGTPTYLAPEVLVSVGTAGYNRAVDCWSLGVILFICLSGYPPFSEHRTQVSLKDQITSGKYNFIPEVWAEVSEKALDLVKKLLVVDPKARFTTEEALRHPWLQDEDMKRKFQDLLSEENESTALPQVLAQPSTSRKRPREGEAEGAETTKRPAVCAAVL
# CDK2/cyclinE(h) = CDK2/cyclinE(h) (Homo sapiens, UniProt P24941); assay: kinase panel activity, CDK2/cyclinE(h); assay type: biochemical; settings: compound at 20 μM; vs reference with no compound
# CHK1(h) = CHK1(h) (Homo sapiens, UniProt O14757); assay: kinase panel activity, CHK1(h); assay type: biochemical; settings: compound at 20 μM; vs reference with no compound
# Rsk2(h) = Rsk2(h) (Homo sapiens, UniProt P51812); assay: kinase panel activity, Rsk2(h); assay type: biochemical; settings: for percent activity of Rsk2(h): compound at 20 μM, vs reference with no compound
# Chain of Rsk2(h) (P51812 whole entry): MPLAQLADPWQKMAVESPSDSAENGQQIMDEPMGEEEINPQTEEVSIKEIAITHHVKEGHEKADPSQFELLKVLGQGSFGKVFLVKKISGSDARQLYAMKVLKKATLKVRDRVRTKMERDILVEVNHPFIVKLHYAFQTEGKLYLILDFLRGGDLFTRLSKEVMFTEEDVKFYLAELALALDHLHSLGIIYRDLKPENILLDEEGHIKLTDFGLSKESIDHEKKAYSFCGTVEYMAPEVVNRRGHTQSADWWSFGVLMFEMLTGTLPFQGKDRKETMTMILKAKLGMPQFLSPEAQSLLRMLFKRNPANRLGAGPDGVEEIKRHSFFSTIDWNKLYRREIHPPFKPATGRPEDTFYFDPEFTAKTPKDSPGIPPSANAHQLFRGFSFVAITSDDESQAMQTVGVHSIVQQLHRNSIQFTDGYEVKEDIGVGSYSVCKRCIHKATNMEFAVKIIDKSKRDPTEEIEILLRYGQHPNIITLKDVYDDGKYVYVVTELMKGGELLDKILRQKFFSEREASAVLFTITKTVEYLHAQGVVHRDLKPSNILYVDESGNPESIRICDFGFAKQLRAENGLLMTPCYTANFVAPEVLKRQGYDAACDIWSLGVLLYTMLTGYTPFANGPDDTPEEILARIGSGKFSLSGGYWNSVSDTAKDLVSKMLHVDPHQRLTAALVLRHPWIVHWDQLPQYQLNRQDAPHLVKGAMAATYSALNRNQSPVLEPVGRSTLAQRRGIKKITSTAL
# NEK7(h) = NEK7(h) (Homo sapiens, UniProt Q8TDX7); assay: kinase panel activity, NEK7(h); assay type: biochemical; settings: compound at 20 μM; vs reference with no compound
# Pim-1(h) = Pim-1(h) (Homo sapiens, UniProt P11309); assay: kinase panel activity, Pim-1(h); assay type: biochemical; settings: compound at 20 μM; vs reference with no compound
# [1] = compound at 20 μM, vs reference with no compound
smiles,measurement,setting,value
"O=C(O)[C@H]1O[C@@H](Oc2ccc(/C=C/c3cc(O)cc(O)c3)cc2)[C@H](O)[C@@H](O)[C@@H]1O [Res 4′-Gluc, resveratrol-4-glucuronide]",percent activity of SAPK2b(h),SAPK2b(h),111%
same,percent activity of CDK1/cyclinB(h),CDK1/cyclinB(h),104%
same,percent activity of PAK4(h),PAK4(h),107%
same,percent activity of PKBγ(h),PKBγ(h); [1],101%
same,percent activity of GSK3β(h),GSK3β(h),88%
same,percent activity of PIk3(h),PIk3(h),86%
same,percent activity of MSK1(h),MSK1(h),110%
same,percent activity of MEK1(h),MEK1(h),120%
same,percent activity of FGFR1(h),FGFR1(h),45%
same,percent activity of CDK6/cyclinD3(h),CDK6/cyclinD3(h),95%
same,percent activity of PDGFRβ(h),PDGFRβ(h),119%
same,percent activity of Snk(h),Snk(h),87%
same,percent activity of ZAP-70(h),ZAP-70(h),125%
same,percent activity of PDGFRα(h),PDGFRα(h),114%
same,percent activity of SGK2(h),SGK2(h),91%
same,percent activity of SAPK4(h),SAPK4(h),104%
same,percent activity of CDK7/cyclinH/MAT1(h),CDK7/cyclinH/MAT1(h),110%
same,percent activity of PKCα(h),PKCα(h),100%
same,percent activity of JNK2α2(h),JNK2α2(h),123%
same,percent activity of MAPK1(h),MAPK1(h),106%
same,percent activity of CDK9/cyclin T1(h),CDK9/cyclin T1(h),105%
same,percent activity of JNK3(h),JNK3(h),105%
same,percent activity of p70S6K(h),p70S6K(h),54%
same,percent activity of MST1(h),MST1(h),106%
same,percent activity of TAK1(h),TAK1(h),113%
same,percent activity of PKBβ(h),PKBβ(h); [1],94%
same,percent activity of cSRC(h),cSRC(h),54%
same,percent activity of NEK3(h),NEK3(h),105%
same,percent activity of MAPK2(h),MAPK2(h),105%
same,percent activity of IKKα(h),IKKα(h),113%
same,percent activity of Rsk1(h),Rsk1(h),104%
same,percent activity of NEK6(h),NEK6(h),107%
same,percent activity of ALK4(h),ALK4(h),104%
same,percent activity of AMPK(r),AMPK(r),43%
same,percent activity of CHK2(h),CHK2(h),95%
same,percent activity of CDK2/cyclinE(h),CDK2/cyclinE(h),106%
same,percent activity of CHK1(h),CHK1(h),117%
same,percent activity of Rsk2(h),Rsk2(h),100%
same,percent activity of NEK7(h),NEK7(h),112%
same,percent activity of Pim-1(h),Pim-1(h),31%
"Oc1ccc(C=Cc2cc(O)cc(O)c2)cc1 [resveratrol, 3,5,4′-trihydroxystilbene]",percent activity of SAPK2b(h),SAPK2b(h),100%
same,percent activity of CDK1/cyclinB(h),CDK1/cyclinB(h),67%
same,percent activity of PAK4(h),PAK4(h),103%
same,activity at 20 µM,PKBγ(h); read-out: percent activity of PKBγ(h),89%
same,percent activity of GSK3β(h),GSK3β(h),92%
same,percent activity of PIk3(h),PIk3(h),95%
same,percent activity of MSK1(h),MSK1(h),58%
same,percent activity of MEK1(h),MEK1(h),110%
same,percent activity of FGFR1(h),FGFR1(h),58%
same,percent activity of CDK6/cyclinD3(h),CDK6/cyclinD3(h),55%
same,percent activity of PDGFRβ(h),PDGFRβ(h),119%
same,percent activity of Snk(h),Snk(h),81%
same,percent activity of ZAP-70(h),ZAP-70(h),141%
same,percent activity of PDGFRα(h),PDGFRα(h),114%
same,percent activity of SGK2(h),SGK2(h),70%
same,percent activity of SAPK4(h),SAPK4(h),92%
same,percent activity of CDK7/cyclinH/MAT1(h),CDK7/cyclinH/MAT1(h),95%
same,percent activity of PKCα(h),PKCα(h),114%
same,percent activity of JNK2α2(h),JNK2α2(h),110%
same,percent activity of MAPK1(h),MAPK1(h),94%
same,percent activity of CDK9/cyclin T1(h),CDK9/cyclin T1(h),70%
same,percent activity of JNK3(h),JNK3(h),98%
same,percent activity of p70S6K(h),p70S6K(h),21%
same,percent activity of MST1(h),MST1(h),75%
same,percent activity of TAK1(h),TAK1(h),105%
same,activity at 20 µM,PKBβ(h); read-out: percent activity of PKBβ(h),105%
same,percent activity of cSRC(h),cSRC(h),61%
same,percent activity of NEK3(h),NEK3(h),96%
same,percent activity of MAPK2(h),MAPK2(h),101%
same,percent activity of IKKα(h),IKKα(h),40%
same,percent activity of Rsk1(h),Rsk1(h),70%
same,percent activity of NEK6(h),NEK6(h),140%
same,percent activity of ALK4(h),ALK4(h),110%
same,percent activity of AMPK(r),AMPK(r),39%
same,percent activity of CHK2(h),CHK2(h),59%
same,percent activity of CDK2/cyclinE(h),CDK2/cyclinE(h),80%
same,percent activity of CHK1(h),CHK1(h),95%
same,inhibition at 20 µM,Rsk2(h),68%
same,percent activity of Rsk2(h),Rsk2(h),32%
same,percent activity of NEK7(h),NEK7(h),116%
same,percent activity of Pim-1(h),Pim-1(h),6%
